These results are taken from ChEMBL document CHEMBL3217679, “Synthesis and biological activity profile of novel 2-cinnamylidene-1,3-diones related to coruscanone A: promising new antileishmanial agents” (Medchemcomm, 2012).

Each structure is given as a SMILES string. Calls of active or inactive are those of the source. The rule behind the calls is not given here. A value given as a limit tells only on which side of the number the result lay.

One data set relates to Aspergillus fumigatus. Briefly: Antifungal activity against Aspergillus fumigatus ATCC 90906 assessed as growth inhibition after 46 to 50 hrs by alamar blue assay. The format is functional, organism-based.
The nature of data set [1]: Cytotoxicity against African green monkey Vero cells by neutral red assay. The format is cell-based. Particulars: chlorocebus sabaeus, read-out: TC50 (the source's name).
Another data set relates to Pichia kudriavzevii. The data set is described as follows: Antifungal activity against Candida krusei ATCC 6258 assessed as growth inhibition after 46 to 50 hrs by modified CLSI method. The format is functional, organism-based.
The next data set has as its system Cryptococcus neoformans. Briefly: Antifungal activity against Cryptococcus neoformans ATCC 90113 assessed as growth inhibition after 70 to 74 hrs by modified CLSI method. Type of data set: functional, organism-based.
In another data set the test system is Leishmania donovani. The data set is described as follows: Antiparasitic activity against Leishmania donovani S1 promastigotes assessed as growth inhibition after 72 hrs by alamar blue assay. The format is functional, organism-based. Particulars: S1, 72 h.
The next data set has as its system Nakaseomyces glabratus. Briefly: Antifungal activity against Candida glabrata ATCC 90030 assessed as growth inhibition after 46 to 50 hrs by modified CLSI method. Type of data set: functional, organism-based.
Another data set concerns Candida albicans. Briefly: Antifungal activity against Candida albicans ATCC 90028 assessed as growth inhibition after 46 to 50 hrs by modified CLSI method. Type of data set: functional, organism-based.
Data set [2] has as its system Plasmodium falciparum. Briefly: Antiparasitic activity against chloroquine-resistant Plasmodium falciparum W2 assessed as growth inhibition at 16 uM after 48 hrs by pLDH assay. Type of data set: functional, organism-based.
Data set [3] deals with Plasmodium falciparum. Briefly: Antiparasitic activity against chloroquine-sensitive Plasmodium falciparum D6 assessed as growth inhibition at 16 uM after 48 hrs by pLDH assay. Type of data set: functional, organism-based.

The IC50 is the concentration that inhibits the measured activity by half. As a reminder, the IC90 is the concentration needed for an effect of 90%. Turning to `CC(=O)C(=C/C=C/c1ccccc1)C(C)=O`, the “growth inhibition (GI)” value with Aspergillus fumigatus, in the data set with Candida albicans, in the data set on Plasmodium falciparum [2] and in the data set with Plasmodium falciparum [3] was “inactive” in each case. The CC50 in [1] was more than 22.2 µM. Besides, the IC50 with Pichia kudriavzevii is more than 60 µM; with Cryptococcus neoformans it was more than 60 µM; in the data set with Leishmania donovani it was 19.1 µM; with Nakaseomyces glabratus, more than 60 µM. Also, the concentration for an effect of 90% (IC90) with Leishmania donovani stood at 52.3 µM.

As to `C/C=C/C=C/C=C1C(=O)CC(C)(C)CC1=O`, the “growth inhibition (GI)” value with Aspergillus fumigatus, in the data set with Candida albicans, with Plasmodium falciparum [2] and with Plasmodium falciparum [3] was “inactive” throughout. Also, the CC50 in data set [1] is more than 21.8 µM. Also, the IC50 is more than 60 µM with Pichia kudriavzevii, more than 60 µM in the data set with Cryptococcus neoformans, 45.8 µM in the data set on Leishmania donovani and more than 60 µM in the data set with Nakaseomyces glabratus. Besides, the 90% effect concentration (IC90) with Leishmania donovani is more than 100 µM.
